Consider seven compounds from ChEMBL document CHEMBL1201862, “PubChem BioAssay data set” (2004).

Each structure is given as a SMILES string. Activity calls are given as the source filed them. Where only a bound is given, the exact number is not on record here.

The target of assay [1] is Mannose-6-phosphate isomerase (Homo sapiens, UniProt P34949). In words: human PMI inhibitors, high substrate, primary screen, biochemical, fluorescence intensity, high mannose 6-phosphate (AID 1220).
Assay [2] in a line: inhibitors of intracellular T. cruzi replication, confirmation, NIH3T3 host cells, beta-gal luminescence (AID 2044).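 Further: intracellular parasites grown in NIH/3T3 mouse fibroblasts as host cells; luminescent beta-galactosidase reporter signal from transgenic T. cruzi replicating inside host cells; inhibitors lower the luminescence signal.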 The class given is functional, cell-based.
A short description of assay [3]: cytotoxicity toward NIH3T3 fibroblasts, dose response, counter-screen, cell-based, ATP luminescence, mouse fibroblasts (AID 2010).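 Further: cells exposed to compound for about 90 hours before reading.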 The format is functional. Background: Counterscreens check selectivity or assay interference.
A short description of assay [4]: Luminescence Cell-Based Secondary HTS screen to identify cytotoxic compounds of NIH3T3 cells. [Related pubchem assays: 1885, 1968 ]. The format is functional.
A short description of assay [5]: P. falciparum late gametocyte killing, dose response, luminescence (AID 1117278).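 Further: gametocytes exposed to compound for 24 hours.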 The class given is functional, cell-based.
Assay [6] in a line: Jurkat T cell cytotoxicity, dose response, cytotoxicity control for P. falciparum gametocyte viability project, luminescence (AID 1117277).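 Further: potency reflects loss of cellular ATP meaning fewer viable cells.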 The class given is functional, cell-based.
The target of assay [7] is Solute carrier family 12 member 2/member 5 (Homo sapiens, UniProt P55011+Q9H2X9). In words: KCC2 and NKCC1 inhibition by rubidium flux, cell-based, NKCC1 counter-screen (AID 1734). The class given is functional, HEK293.
Assay [8] addresses Ephrin type-A receptor 4 (Mus musculus, UniProt Q03137). In words: inhibitors of EphA4 binding to KYL peptide, primary screen, biochemical, colorimetric, mouse EphA4 (AID 689). The class given is functional.
A short description of assay [9]: Luminescence Cell-Based Dose Confirmation HTS to Identify Inhibitors of Platelet Dense Granule Release. [Related pubchem assays: 1663 (Primary HTS), 1678 (Summary of Project)]. The format is functional.
The nature of assay [10]: Vero E6 cell cytotoxicity, dose response, cytotoxicity control for non-replicating M. tuberculosis project, secondary assay (AID 492998). The format is functional, VeroE6. To be noted: Vero C1008.
Assay [11] can be described thus: cells. The class given is functional.
Assay [12] in a line: Artemis endonuclease inhibitor potency, dose response, biochemical, fluorescence intensity (AID 720701).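 Further: Artemis endonuclease enzyme.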 The class given is functional.
A short description of assay [13]: ARNT/TACC3 interaction disruptors, potency, confirmation, biochemical, AlphaScreen, cherry-picked samples (AID 651703).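 Further: His-tagged ARNT PAS-B domain paired with GST-TACC3 E629A dimer coactivator fragment; potency of inhibitors that break up the complex and lower AlphaScreen signal.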 The format is functional, Homo sapiens.
A short description of assay [14]: AlphaScreen signal interference compounds, dose response, artefact control for ARNT-TACC3 interaction inhibitor project, biochemical, luminescence, cherry-pick (AID 651705).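 Further: AlphaScreen bead proximity signal that flags compounds interfering with the detection technology; potency reflects signal decrease which marks the compound as an assay artifact.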 The format is functional. (Alpha assays give light when donor and acceptor beads are brought close together.)
For assay [15], the target named is Luciferin 4-monooxygenase (Photinus pyralis, UniProt P08659). In words: firefly luciferase enzyme inhibitors, dose response, biochemical, luminescence (AID 1891).
The nature of assay [16]: microbe, parasite or virus in culture. The class given is functional. Particulars: Mycobacterium tuberculosis.
A short description of assay [17]: THP-1 cell cytotoxicity, dose response, cytotoxicity control for non-replicating M. tuberculosis project (AID 489025). The class given is functional.
In assay [18] the test system is Streptococcus. In words: Group A Streptococcus viability loss, dose response, counter-screen for streptokinase expression inhibitor project, luminescence, BacTiterGlo (AID 1915).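 Further: potency for reduction of bacterial viability or growth.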 The class given is functional, organism-based.
For assay [19], the target named is T1, Replicative DNA helicase DnaB (Mycobacterium tuberculosis, UniProt P9WMR3).
T1 sequence (P9WMR3 whole entry): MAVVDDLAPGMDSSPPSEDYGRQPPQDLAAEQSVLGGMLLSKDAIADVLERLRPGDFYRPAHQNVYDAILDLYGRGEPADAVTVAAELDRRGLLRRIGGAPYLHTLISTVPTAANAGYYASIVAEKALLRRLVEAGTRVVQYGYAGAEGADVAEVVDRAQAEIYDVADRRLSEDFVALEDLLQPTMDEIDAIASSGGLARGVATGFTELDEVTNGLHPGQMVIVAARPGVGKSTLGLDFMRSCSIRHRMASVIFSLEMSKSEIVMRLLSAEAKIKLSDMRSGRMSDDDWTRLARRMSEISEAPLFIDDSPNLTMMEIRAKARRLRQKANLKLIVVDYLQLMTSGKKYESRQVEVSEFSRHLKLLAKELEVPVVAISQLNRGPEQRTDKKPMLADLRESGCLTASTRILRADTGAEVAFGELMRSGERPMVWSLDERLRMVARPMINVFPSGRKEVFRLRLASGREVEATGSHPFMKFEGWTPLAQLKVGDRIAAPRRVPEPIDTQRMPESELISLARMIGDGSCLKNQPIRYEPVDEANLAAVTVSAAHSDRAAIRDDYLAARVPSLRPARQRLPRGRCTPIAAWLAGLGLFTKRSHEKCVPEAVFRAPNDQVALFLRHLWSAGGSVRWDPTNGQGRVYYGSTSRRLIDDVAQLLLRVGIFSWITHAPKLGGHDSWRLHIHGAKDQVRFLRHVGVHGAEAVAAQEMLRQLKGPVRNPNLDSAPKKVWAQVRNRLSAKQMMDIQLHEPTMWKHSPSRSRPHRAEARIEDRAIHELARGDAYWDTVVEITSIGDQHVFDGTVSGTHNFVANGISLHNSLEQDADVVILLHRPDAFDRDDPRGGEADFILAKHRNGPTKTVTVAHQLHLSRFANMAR
In words: DnaB intein splicing inhibitors, dose response, biochemical, cell-free fluorescence (AID 449749). The class given is functional.

Assay [20] addresses T2, Streptokinase A (Streptococcus pyogenes serotype M1, UniProt P10520).
T2 sequence (P10520 whole entry): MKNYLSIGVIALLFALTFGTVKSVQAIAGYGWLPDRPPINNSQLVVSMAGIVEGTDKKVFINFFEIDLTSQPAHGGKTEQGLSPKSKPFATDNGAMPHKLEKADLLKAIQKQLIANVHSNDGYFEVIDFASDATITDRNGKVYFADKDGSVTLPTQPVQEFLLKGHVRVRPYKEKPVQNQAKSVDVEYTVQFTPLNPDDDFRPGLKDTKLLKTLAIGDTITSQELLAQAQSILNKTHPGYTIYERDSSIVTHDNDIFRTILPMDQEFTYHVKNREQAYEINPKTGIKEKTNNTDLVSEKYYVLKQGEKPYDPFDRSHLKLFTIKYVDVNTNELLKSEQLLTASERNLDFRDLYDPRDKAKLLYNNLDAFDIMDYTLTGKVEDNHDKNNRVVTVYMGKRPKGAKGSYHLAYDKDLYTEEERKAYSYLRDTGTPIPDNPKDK
Briefly: S. pyogenes streptokinase expression inhibitors, potency, dose response, plasminogen activation absorbance, OD405 (AID 1914).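 Further: secreted streptokinase activity via plasminogen activation per viability signal from cell pellet.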 The class given is functional, Streptococcus pyogenes M1 GAS.

The target of assay [21] is T3, Protein RecA (Mycobacterium tuberculosis, UniProt P9WHJ3).
T3 sequence (P9WHJ3 whole entry): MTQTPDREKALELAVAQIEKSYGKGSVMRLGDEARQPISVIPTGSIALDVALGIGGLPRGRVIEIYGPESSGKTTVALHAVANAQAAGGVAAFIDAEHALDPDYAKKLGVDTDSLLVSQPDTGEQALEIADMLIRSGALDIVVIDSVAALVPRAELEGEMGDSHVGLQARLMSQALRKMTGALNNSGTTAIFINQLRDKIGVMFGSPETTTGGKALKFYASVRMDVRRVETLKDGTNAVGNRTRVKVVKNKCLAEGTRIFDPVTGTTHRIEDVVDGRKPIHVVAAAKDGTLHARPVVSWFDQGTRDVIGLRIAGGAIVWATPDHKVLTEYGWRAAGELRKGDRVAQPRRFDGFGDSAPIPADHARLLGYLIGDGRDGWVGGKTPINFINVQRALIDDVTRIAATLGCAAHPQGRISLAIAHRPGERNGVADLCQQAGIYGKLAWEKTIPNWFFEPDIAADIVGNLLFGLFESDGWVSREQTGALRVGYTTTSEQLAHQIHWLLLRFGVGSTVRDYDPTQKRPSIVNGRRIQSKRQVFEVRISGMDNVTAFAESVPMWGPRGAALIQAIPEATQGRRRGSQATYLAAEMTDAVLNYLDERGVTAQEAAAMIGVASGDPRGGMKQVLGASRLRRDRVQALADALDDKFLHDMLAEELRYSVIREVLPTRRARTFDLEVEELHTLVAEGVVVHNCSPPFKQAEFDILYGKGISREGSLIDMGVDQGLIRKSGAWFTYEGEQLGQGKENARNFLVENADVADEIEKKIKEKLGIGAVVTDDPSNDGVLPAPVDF
Briefly: Fluorescence Cell-Free Homogeneous Dose Retest to Identify Inhibitors of RecA-Intein Splicing Activity. [Related pubchem assays (depositor defined):AID2097, AID2223, AID489010, AID492950]. The format is functional.

Assay [22] can be described thus: Luminescent dose response cell-based high throughput screening assay for inhibitors of the Janus kinase 2 mutant JAK2V617F. [Related pubchem assays: 1446 (Primary screen.), 1521 (Confirmation assay.), 1486 (Counter screen.)]. The format is functional.
Assay [23] concerns Streptococcus sp. 'group A'. In words: growth inhibition of control SK(-) GAS strain, dose response, counter-screen for streptokinase expression inhibitor project, luminescence, kanamycin, BacTiterGlo, confirmation (AID 1900). The class given is functional, organism-based.
For assay [24], the target named is T4, Heat shock factor protein 1 (Mus musculus, UniProt P38532).
T4 sequence (P38532 whole entry): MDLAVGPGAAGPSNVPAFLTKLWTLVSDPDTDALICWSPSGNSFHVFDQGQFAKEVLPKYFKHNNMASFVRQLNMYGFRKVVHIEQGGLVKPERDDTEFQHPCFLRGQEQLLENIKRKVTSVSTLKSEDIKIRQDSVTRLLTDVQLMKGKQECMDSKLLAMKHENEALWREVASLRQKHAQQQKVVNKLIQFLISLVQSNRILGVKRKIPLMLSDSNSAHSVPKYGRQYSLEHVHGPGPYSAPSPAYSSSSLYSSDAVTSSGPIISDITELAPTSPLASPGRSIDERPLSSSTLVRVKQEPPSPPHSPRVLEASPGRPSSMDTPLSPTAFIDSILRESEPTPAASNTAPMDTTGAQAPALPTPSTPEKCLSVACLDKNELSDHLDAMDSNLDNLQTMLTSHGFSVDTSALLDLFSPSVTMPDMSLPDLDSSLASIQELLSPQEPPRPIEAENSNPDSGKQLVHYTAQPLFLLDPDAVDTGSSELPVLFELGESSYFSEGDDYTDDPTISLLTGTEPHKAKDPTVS
In words: inhibition of MG132-induced HSE-luciferase signal, confirmation, cell-based, NIH3T3, luminescence, dose retest (AID 2382).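 Further: NIH3T3 fibroblasts with HSF1-driven luciferase reporter stressed by proteasome inhibitor MG132; luminescence from HSF1-driven luciferase expression after 8 hours of MG132 stress.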 The format is functional.

Sequence of Mannose-6-phosphate isomerase (P34949 whole entry): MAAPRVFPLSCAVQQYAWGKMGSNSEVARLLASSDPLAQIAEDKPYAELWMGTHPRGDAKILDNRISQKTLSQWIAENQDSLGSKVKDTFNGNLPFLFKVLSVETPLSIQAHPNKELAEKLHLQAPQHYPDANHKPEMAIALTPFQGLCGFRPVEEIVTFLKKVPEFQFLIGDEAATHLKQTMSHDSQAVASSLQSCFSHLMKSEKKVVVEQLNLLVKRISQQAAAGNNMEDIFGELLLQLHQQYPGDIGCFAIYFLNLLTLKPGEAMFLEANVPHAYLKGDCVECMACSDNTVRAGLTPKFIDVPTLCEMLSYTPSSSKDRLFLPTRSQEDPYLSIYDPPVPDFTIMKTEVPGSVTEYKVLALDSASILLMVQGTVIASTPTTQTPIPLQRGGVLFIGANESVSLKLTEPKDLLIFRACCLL
Sequence of Ephrin type-A receptor 4 (Q03137 whole entry): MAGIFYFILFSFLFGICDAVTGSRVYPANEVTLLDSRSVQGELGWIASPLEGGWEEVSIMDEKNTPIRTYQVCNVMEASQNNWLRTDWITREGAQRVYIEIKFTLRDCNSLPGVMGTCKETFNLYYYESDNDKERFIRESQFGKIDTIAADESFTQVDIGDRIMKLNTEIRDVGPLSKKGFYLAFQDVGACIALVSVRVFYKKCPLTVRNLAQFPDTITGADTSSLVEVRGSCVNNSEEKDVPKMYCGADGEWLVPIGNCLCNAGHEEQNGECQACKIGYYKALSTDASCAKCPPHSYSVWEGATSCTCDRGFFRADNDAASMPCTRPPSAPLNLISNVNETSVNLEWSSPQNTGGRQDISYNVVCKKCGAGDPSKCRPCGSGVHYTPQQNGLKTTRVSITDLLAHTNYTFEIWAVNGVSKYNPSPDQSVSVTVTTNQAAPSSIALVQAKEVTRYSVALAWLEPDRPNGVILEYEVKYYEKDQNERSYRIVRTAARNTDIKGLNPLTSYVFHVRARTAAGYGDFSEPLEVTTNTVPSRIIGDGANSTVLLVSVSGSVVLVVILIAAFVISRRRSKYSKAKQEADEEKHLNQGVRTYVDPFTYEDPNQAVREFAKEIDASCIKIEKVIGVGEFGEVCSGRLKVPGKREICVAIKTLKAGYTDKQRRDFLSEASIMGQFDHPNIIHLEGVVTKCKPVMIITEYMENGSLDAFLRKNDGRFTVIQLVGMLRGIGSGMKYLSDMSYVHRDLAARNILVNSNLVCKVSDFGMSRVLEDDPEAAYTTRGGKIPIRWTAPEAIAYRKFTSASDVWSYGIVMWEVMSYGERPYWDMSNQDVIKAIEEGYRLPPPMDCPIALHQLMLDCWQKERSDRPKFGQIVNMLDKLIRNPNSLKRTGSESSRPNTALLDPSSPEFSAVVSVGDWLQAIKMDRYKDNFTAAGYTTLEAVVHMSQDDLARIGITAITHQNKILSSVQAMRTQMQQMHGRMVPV
Sequence of Luciferin 4-monooxygenase (P08659 whole entry): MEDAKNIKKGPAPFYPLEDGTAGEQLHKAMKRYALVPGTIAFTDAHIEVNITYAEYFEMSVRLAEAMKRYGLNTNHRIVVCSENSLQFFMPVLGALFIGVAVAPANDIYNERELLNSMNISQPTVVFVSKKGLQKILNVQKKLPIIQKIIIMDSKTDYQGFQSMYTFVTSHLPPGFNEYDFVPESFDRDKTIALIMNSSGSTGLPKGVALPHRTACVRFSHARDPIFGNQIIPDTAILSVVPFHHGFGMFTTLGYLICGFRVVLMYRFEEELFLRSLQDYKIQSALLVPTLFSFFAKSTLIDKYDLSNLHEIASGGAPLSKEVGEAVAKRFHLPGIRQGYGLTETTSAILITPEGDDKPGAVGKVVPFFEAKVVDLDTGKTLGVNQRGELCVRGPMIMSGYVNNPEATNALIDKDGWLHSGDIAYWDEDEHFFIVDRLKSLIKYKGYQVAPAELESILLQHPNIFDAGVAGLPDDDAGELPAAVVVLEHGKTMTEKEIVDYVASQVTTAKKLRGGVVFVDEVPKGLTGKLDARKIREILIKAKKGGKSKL

As to `FC(F)Oc1cccc(NC(=S)N2CCN(c3ccccn3)CC2)c1`, the IC50 (as a rule, the concentration that gives 50% inhibition) in [1] is given as > 50 µM (not active).
As to `O=C(NCC1CCCN(Cc2cccc(C(F)(F)F)c2)C1)c1ccc(F)cc1` (centres undefined), the EC50 (as a rule, the concentration giving half of the maximal effect) in assay [2] is 0.112 µM (active); in assay [3], > 60 µM (inconclusive); in assay [4] it was > 195 µM (not active).
As for `CC(C)c1cc(C(=O)O)c2cnn(C(C)C)c2n1`, the results for the IC50 in assay [5] and in [6] were > 109 µM (inactive) and > 83.2 µM (inactive), respectively.
For `CC(C)c1onc(C(=O)N2CCN(Cc3ccccc3)CC2)c1[N+](=O)[O-]`, the half-inhibitory concentration (IC50) in assay [7] was 1.5 µM (active).
Take `Cc1cc(C)n(CNc2nc(C(F)(F)F)cs2)n1`: the IC50 in assay [8] is on record as > 100 µM (not active).
Regarding `c1ccc(-c2nc3c(ccc4ccccc43)[nH]2)nc1`, the figures for the EC50 in [9] and in assay [15] were 27.1 µM (active) and 4.22 µM (active), respectively. Moreover, the CC50 is > 20 µM (active) in assay [10], > 40 µM (active) in assay [16] and 38.9 µM (active) in [17]. For the same compound, the IC50 in [11] was 18.9 µM (active); in [12], 14.4 µM (active). In addition, the AC50 (usually the midpoint of the concentration-response curve, whichever way the signal moves) was 79 µM (active) in assay [13] and 119 µM (active) in assay [14].
With `Cc1cccc(CS(=O)(=O)c2nnc([C@H](Cc3ccccc3)NC(=O)OC(C)(C)C)o2)c1`, the EC50 was 10.2 µM (active) in assay [18]; 1.5 µM (active) in assay [20]; 5.42 µM (active) in assay [21]; 8.25 µM (active) in assay [23]; 2.19 µM (active) in [24]. The AC50 in assay [19] is 2.68 µM (active). Further, the IC50 in assay [22] was 0.87 µM (active).
